The values below come from US5204361A, “Method for treating laminitis in equine livestock” (priority 1988, dated 1993).

In series [1] the test system is caecal/large colon digesta. Kind of series: Experiment 2 Part 5: efficacy of tylosin relative to virginiamycin, digesta incubated with glucose. The format is cell-based, horse. The conditions noted are these: antibiotic 1.00 μg/ml, 37°, 20 hours, mean.
The test system of series [2] is caecal/large colon digesta. The description is as above. The series is classed as cell-based, horse. Conditions: for L-lactate: digesta incubated with glucose, 37°, 20 hours, mean. As for the experimental part:
An in vitro fermentation experiment was conducted to determine the efficacy of tylosin relative to virginiamycin. Samples of strained caecal and large colon digesta (16 ml) were incubated with glucose solution (60 ug/ml) (4 ml) and varying concentrations of either tylosin or virginiamycin representing […], 2.0, 4.0 ug of tylosin or virginiamycin per ml. The 25 ml containers were incubated at 37° for 20 hours. There were three replicates per treatment.

Another series deals with cattle. Conditions: Nagaraja et al. (1981); cited from earlier work.
The test system of series [3] is mixed caecal/large colon digesta. Kind of series: Experiment 2 Part 1: in vitro fermentation of digesta with cornstarch, avoparcin, virginiamycin, flavomycin 2-32 ug/ml. The format is cell-based, horse. More on the design: Lactate / Total VFA: unit not given here. The conditions noted are these: for pH / Acet:Prop / Lactate / Total VFA / control of lactic acid build-up: cornstarch 15 mg/ml; for pH / Acet:Prop / Lactate / Total VFA: mean. The method, then:
(§1) Digesta was taken from the caecum and large colon from recently slaughtered animals and was filtered through nylon gauze (approximately 60 micron apertures). The fluid was diluted 1:1 with a buffer solution described by Bales et al. (1976) and incubated with wheat "corn starch" (with or without antibiotics) at 37° for 16 to 20 hours. Aliquots of digesta diluted with buffer (50 ml) were added to 100 ml conical flasks. The flasks were flushed with carbon dioxide before being sealed with a tightly fitting rubber cap. A 21 gauge needle was inserted through the rubber seal in order to allow gas to escape during the fermentation. On removal from the incubator sub-samples were immediately taken to measure L-lactic acid concentration and pH. For each treatment or level of antibiotic three replicate incubation flasks were used.
A range of concentrations of cornstarch providing: 0, 5, 10, 15 and 20 mg/ml diluted digesta (i.e. from 0 to 1 g cornstarch/conical flask) were tested to determine the amount required to produce a pattern of fermentation with high levels of lactic acid. Flasks were also prepared with cornstarch mixed with antibiotic premixes to provide 15 mg cornstarch/ml incubation mixture and 0, 2, 4, 8, 16 and 32 ug of avoparcin, virginiamycin or flavomycin per ml incubation mixture. After approximately 16 hour incubation at 37° samples were taken to measure lactic acid, VFA and pH.

The subject of series [4] is caecal and large colon contents. Kind of series: Experiment 2 Part 3: in vitro screening at 2 ug/ml in digesta of four horses. Conditions: 2 ug antibiotic/ml, 15 mg cornstarch/ml, 20 hour incubation. The series is classed as cell-based, horse. As for the experimental part: as §1
All four of the antibiotics, listed above, were incubated as previously described to provide 2 ug antibiotic and 15 mg cornstarch per ml incubation mixture. There was one flask per test and each antibiotic was incubated in digesta from both the caecum and the large colon taken from each of 4 animals. Samples of incubation fluid were taken following a 20 hour incubation and were analysed for L-lactate and pH.

For series [5], the system named is horses dosed with 15 g wheat/kg liveweight. Conditions: for D-lactic acid, caecum / D-lactic acid, large colon / L-lactic acid, large colon / Lameness (Obel grade): avoparcin 120 mg/kg wheat; for D-lactic acid, caecum / D-lactic acid, large colon / L-lactic acid, large colon: 24 hours after wheat; for Lameness (Obel grade): within 24 hours of wheat.
Experimental: Four horses were dosed with 15 g wheat/kg liveweight. The wheat given to two of the animals contained 120 mg avoparcin/kg wheat, and the other two animals received the wheat without medication. Animals were examined prior to dosing and at intervals of eight hours after the dosing for a period of 24 hours. At these times temperature and heart rate were measured, and a sample of venous blood was taken for the measurement of pH, blood gases, bicarbonate, D-lactate and L-lactate. Animals were also examined for any signs of lameness according to the criteria of Obel (1948) as summarized by Garner et al (1977). After 24 hours all animals were slaughtered and samples of digesta were taken from the caecum and large colon for analysis of lactic acid, VFA and avoparcin concentration.
The subject of the next series is sheep. Conditions: cited from earlier work.
For series [6], the system named is caecal/large colon digesta. Put plainly: Experiment 2 Part 2: in vitro fermentation with cornstarch, antibiotics at or below 2 ug/ml. The series is classed as cell-based, horse. Conditions: cornstarch 0.75 g per flask, 16 hours, mean. As for the experimental part: as §1
Incubation flasks were set up as described above with cornstarch (0.75 g) containing virginiamycin, flavomycin or zinc-bacitracin a levels to provide: 0, 0.25, 0.5, 1.0 and 2 ug antibiotic/ml incubation mixture. These flasks were incubated for 16 hours. Flasks were also set up with 0.75 g cornstarch and no antibiotic equipped with a tap and sampling tube in order to take samples from the incubation vessels at various times during the fermentation. Samples were taken at the start of the incubation and at 2, 4, 6, 8, 12 and 24 h. These were analysed for L-lactate concentration and pH.

Where [7] appears, read: antibiotic 2 μg/ml, approx 16 hour incubation at 37°.
[8] abbreviates: antibiotic 2 μg/ml, approx 16 hour incubation.
[9] abbreviates: antibiotic 4 μg/ml, approx 16 hour incubation.
[10] abbreviates: antibiotic 8 μg/ml, approx 16 hour incubation.
[11] abbreviates: antibiotic 16 μg/ml, approx 16 hour incubation.
Where [12] appears, read: antibiotic 32 μg/ml, approx 16 hour incubation.
[13] abbreviates: Horse 1, mean of caecum and large colon.
Where [14] appears, read: Horse 2, mean of caecum and large colon.
[15] abbreviates: Horse 3, mean of caecum and large colon.
The mark [16] stands for this setting: Horse 4, mean of caecum and large colon.

Like-named read-outs stand apart in the source and are kept apart here.

As to `CC[C@H]1OC(=O)C[C@@H](O)[C@H](C)[C@@H](O[C@@H]2O[C@H](C)[C@@H](O[C@H]3C[C@@](C)(O)[C@@H](O)[C@H](C)O3)[C@H](N(C)C)[C@H]2O)[C@@H](CC=O)C[C@@H](C)C(=O)/C=C/C(C)=C/[C@@H]1CO[C@@H]1O[C@H](C)[C@@H](O)[C@@H](OC)[C@H]1OC` [Tylosin, tylosin], the L-lactate in series [1] is listed as 45.1 mmol/L; in series [2] (antibiotic 0.50 μg/ml), 122 mmol/L; in series [2] (antibiotic 2.00 μg/ml), 38.7 mmol/L; in series [2] (antibiotic 4.00 μg/ml) it was 11.7 mmol/L. Moreover, the “reduction in lactic acid levels compared with virginiamycin” value in series [2] (at the concentrations used (0.5-4 ug/ml)) is given as “did not cause the same reduction”. Moreover, in series [2] (higher levels of tylosin than virginiamycin required for similar reduction), the “concentration of lactic acid during the fermentation of soluble carbohydrate” value was “can reduce the concentration of lactic acid”.

As for `CC[C@@H](C(=O)[C@@H](C)[C@@H](O)[C@H](C)CCc1ccc(C)c(O)c1C(=O)O)[C@H]1O[C@](CC)([C@H]2CC[C@](O)(CC)[C@H](C)O2)C[C@@H]1C` [lasalocid], the “control of lactic acidosis” value with cattle is on record as “lactic acidosis could be controlled”.

As for avoparcin, the pH was found to be 6.14 in series [3] (setting [7]); 6.17 in series [3] (setting [9]); 6.33 in series [3] (setting [10]); 6.40 in series [3] (setting [11]); 6.43 in series [3] (setting [12]); 5.12 in series [4] (Horse 1). Further, the pH turned out to be 4.57 in series [4] (Horse 2), 4.75 in series [4] (Horse 3), 5.15 in series [4] (Horse 4) and 4.90 in series [4] (Mean of 4 horses). In addition, the “Acet:Prop” value was determined as 2.9 in series [3] (setting [8]); 2.8 in series [3] (setting [9]); 3.3 in series [3] (setting [10]); 3.5 in series [3] (setting [11]); 3.6 in series [3] (setting [12]). The Lactate was determined as 8.9 in series [3] (setting [8]); 12.0 in series [3] (setting [9]); 11.0 in series [3] (setting [10]); 10.3 in series [3] (setting [11]); 15.1 in series [3] (setting [12]). Besides, the “Total VFA” value is recorded as 102.6 in series [3] (setting [8]); 100.9 in series [3] (setting [9]); 82.1 in series [3] (setting [10]); 87.1 in series [3] (setting [11]); 89.8 in series [3] (setting [12]). Besides, in series [3] (even at 32 µg/ml), the “control of lactic acid build-up” value was “only partially controlled”. The “control of lactic acid” value in series [3] (even at the highest concentrations (approx 32 times the minimum effective dose of virginiamycin)) is recorded as “failed to completely control lactic acid”; in the series with sheep (sheep dosed with round wheat, Aitchison et al. (1986)), “particularly effective”. The L-lactate in series [4] (setting [13]) came to 19.8 mmol/L; in series [4] (setting [14]) it was 67.9 mmol/L; in series [4] (setting [15]), 34.5 mmol/L; in series [4] (setting [16]), 20.0 mmol/L; in series [4] (Mean of 4 horses), 35.5 mmol/L. In addition, in series [5] (animals given avoparcin), the “Lactic acid concentrations, large colon digesta versus caecal contents” value is recorded as “appreciably lower in the large colon digesta”. Moreover, the “D-lactic acid, caecum” value in series [5] (horse 2) was 33 mmol/L; in series [5] (horse 4) it was 34 mmol/L. For the same molecule, the figures for the “D-lactic acid, large colon” value in series [5] (horse 2) and in series [5] (horse 4) were 2 mmol/L and 11 mmol/L, respectively. Also, the “L-lactic acid, large colon” value is given as 2 mmol/L in series [5] (horse 2) and 10 mmol/L in series [5] (horse 4). The “Lameness (Obel grade)” value in series [5] (horse 2) and in series [5] (horse 4) was “Obel 2” in each case. The “concentrations of the antibiotic, caecum versus large colon” value in series [5] (in vivo) is on record as “lower in the caecum than in the large colon”. In series [5] (wheat slurry with and without avoparcin), the “Lactic acid accumulation in the hind-gut and lameness” value is listed as “developed irrespective of the presence of avoparcin”.

With bacitracin zinc [Zn-bacitracin], the pH in series [4] (Horse 1) is recorded as 4.91; in series [4] (Horse 2) it was 4.59; in series [4] (Horse 3) it was 4.76; in series [4] (Horse 4), 5.11; in series [4] (Mean of 4 horses) it was 4.84; in series [6] (antibiotic 0.25 μg/ml), 5.64. The pH in series [6] (antibiotic 0.50 μg/ml) is recorded as 5.86; in series [6] (antibiotic 1.00 μg/ml), 5.68; in series [6] (antibiotic 2.00 μg/ml) it was 5.59. Moreover, the L-lactate in series [4] (setting [13]) is 26.8 mmol/L; in series [4] (setting [14]) it was 62.5 mmol/L; in series [4] (setting [15]), 35.1 mmol/L; in series [4] (setting [16]) it was 22.2 mmol/L; in series [4] (Mean of 4 horses), 36.6 mmol/L; in series [6] (antibiotic 0.25 μg/ml), 20.6 mmol/L. The L-lactate in series [6] (antibiotic 0.50 μg/ml) is listed as 17.8 mmol/L; in series [6] (antibiotic 1.00 μg/ml) it was 15.9 mmol/L; in series [6] (antibiotic 2.00 μg/ml), 14.7 mmol/L.

Take flavomycin (bambermycin): the pH in series [3] (setting [7]) is 6.57; in series [3] (setting [9]), 6.52; in series [3] (setting [10]) it was 6.48; in series [3] (setting [11]), 6.47; in series [3] (setting [12]), 6.41; in series [4] (Horse 1), 4.88. Besides, the pH in series [4] (Horse 2) stood at 4.54; in series [4] (Horse 3), 4.98; in series [4] (Horse 4) it was 5.07; in series [4] (Mean of 4 horses) it was 4.86; in series [6] (antibiotic 0.25 μg/ml), 5.69; in series [6] (antibiotic 0.50 μg/ml), 5.67. Besides, the pH in series [6] (antibiotic 1.00 μg/ml) came out at 5.67; in series [6] (antibiotic 2.00 μg/ml) it was 5.56. Besides, the “Acet:Prop” value worked out at 3.4 in series [3] (setting [8]); 4.6 in series [3] (setting [9]); 5.7 in series [3] (setting [10]); 5.8 in series [3] (setting [11]); 5.8 in series [3] (setting [12]). In addition, the Lactate in series [3] (setting [8]) worked out at 0.0; in series [3] (setting [9]), 0.0; in series [3] (setting [10]) it was 0.0; in series [3] (setting [11]), 0.0; in series [3] (setting [12]) it was 0.2. Moreover, the “Total VFA” value in series [3] (setting [8]) came out at 88.9; in series [3] (setting [9]), 93.7; in series [3] (setting [10]), 90.0; in series [3] (setting [11]), 85.6; in series [3] (setting [12]) it was 93.7. Moreover, the “control of lactic acid build-up” value in series [3] (at concentrations as low as 2 g/ml) is reported as “total control”. The L-lactate in series [4] (setting [13]) came out at 31.8 mmol/L; in series [4] (setting [14]), 55.6 mmol/L; in series [4] (setting [15]), 17.9 mmol/L; in series [4] (setting [16]), 23.7 mmol/L; in series [4] (Mean of 4 horses), 32.2 mmol/L; in series [6] (antibiotic 0.25 μg/ml), 12.4 mmol/L. Also, the L-lactate in series [6] (antibiotic 0.50 μg/ml) turned out to be 7.3 mmol/L; in series [6] (antibiotic 1.00 μg/ml) it was 9.9 mmol/L; in series [6] (antibiotic 2.00 μg/ml), 11.7 mmol/L.

thiopeptin: in the series on sheep (sheep, Muir et al (1980)), the “control of wheat-induced acidosis” value was “control of wheat-induced acidosis”.
